Assay results: PubChem BioAssay AID256 (DTP/NCI, 2004)
Where “and” joins values, the source holds several entries; their conditions need not be identical. Equal entries are not always repeated. Inconclusive results and toxic doses are left out.

Test system: CD2F1 mice, L1210 leukemia ip, survival T/C
Experiment: NCI In Vivo Anticancer Drug Screen. Data for tumor model L1210 Leukemia (intraperitoneal) in CD2F1 (CDF1) mice
Conditions: higher = longer survival
In short: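 Read-out first: treated-group measurement over vehicle-control measurement, expressed as a ratio. Animals bore a transplanted tumor line and were dosed with compound or vehicle.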

[1] = endpoint: mean survival time, dose: 100.0 mg/kg/injection, schedule: Q04DX003 (ip), vehicle: saline with Tween-80
[2] = endpoint: mean survival time, dose: 200.0 mg/kg/injection, schedule: Q04DX003 (ip), vehicle: saline with Tween-80
[3] = endpoint: mean survival time, dose: 400.0 mg/kg/injection, schedule: Q04DX003 (ip), vehicle: saline with Tween-80

With `CSc1nc(NC2OC(CO)C(O)C(O)C2O)c(C(C)=O)c(=O)n1C` (stereo not given) the T/C (endpoint: median survival time, dose: 12.5 mg/kg/injection, schedule: Q01DX005 (ip), vehicle: saline with Tween-80) was 98 % of control, the T/C (endpoint: median survival time, dose: 25.0 mg/kg/injection, schedule: Q01DX005 (ip), vehicle: saline with Tween-80) was 98 % of control and the T/C (endpoint: median survival time, dose: 50.0 mg/kg/injection, schedule: Q01DX005 (ip), vehicle: saline with Tween-80) was 97 % of control. The T/C (endpoint: median survival time, dose: 100.0 mg/kg/injection, schedule: Q01DX005 (ip), vehicle: saline with Tween-80) was 100 % of control and the T/C (endpoint: median survival time, dose: 200.0 mg/kg/injection, schedule: Q01DX005 (ip), vehicle: saline with Tween-80) was 88 % of control.

With `OCC1OCOC2COCOC12` (stereo not given) the T/C [1] was 95 % of control, the T/C [2] was 98 % of control and the T/C [3] was 101 % of control.

For `O=C(Cc1ccccn1)Cc1ccccn1`, the T/C (endpoint: mean survival time, dose: 100.0 mg/kg/injection, schedule: Q01DX001 (ip), vehicle: saline with Tween-80) was 106 % of control, the T/C (endpoint: mean survival time, dose: 100.0 mg/kg/injection, schedule: Q04DX002 (ip), vehicle: saline with Tween-80) was 100 % of control and the T/C (endpoint: mean survival time, dose: 200.0 mg/kg/injection, schedule: Q01DX001 (ip), vehicle: saline with Tween-80) was 96 % of control. For the same compound, the T/C (endpoint: mean survival time, dose: 200.0 mg/kg/injection, schedule: Q04DX002 (ip), vehicle: saline with Tween-80) was 100 % of control, the T/C (endpoint: mean survival time, dose: 400.0 mg/kg/injection, schedule: Q01DX001 (ip), vehicle: saline with Tween-80) was 106 % of control and the T/C (endpoint: mean survival time, dose: 400.0 mg/kg/injection, schedule: Q04DX002 (ip), vehicle: saline with Tween-80) was 104 % of control.

For `NC(CC[Se]Cc1ccccc1)C(=O)O` (stereo not given), the T/C (endpoint: mean survival time, dose: 6.25 mg/kg/injection, schedule: Q01DX009 (ip), vehicle: saline with Tween-80) was 92 % of control, the T/C (endpoint: mean survival time, dose: 12.5 mg/kg/injection, schedule: Q01DX009 (ip), vehicle: saline with Tween-80) was 92 % of control and the T/C (endpoint: mean survival time, dose: 25.0 mg/kg/injection, schedule: Q01DX009 (ip), vehicle: saline with Tween-80) was 92 % of control. The T/C [1] was 90 % of control and the T/C [2] was 86 % of control.

In the case of `CNC(=O)c1cccc2c(Nc3ccc(NS(C)(=O)=O)cc3OC)c3cccc(C)c3nc12`, the T/C (endpoint: median survival time, dose: 3.0 mg/kg/injection, schedule: Q01DX009 (ip), vehicle: water) is reported as 181 % of control, the T/C (endpoint: median survival time, dose: 6.25 mg/kg/injection, schedule: Q01DX009 (ip), vehicle: water) is reported as 195 % of control and the T/C (endpoint: median survival time, dose: 12.0 mg/kg/injection, schedule: Q01DX009 (ip), vehicle: water) is reported as 98 % of control. For the same compound, the T/C (endpoint: median survival time, dose: 12.5 mg/kg/injection, schedule: Q01DX005 (oral), vehicle: water) was 160 % of control, the T/C (endpoint: median survival time, dose: 12.5 mg/kg/injection, schedule: Q01DX009 (ip), vehicle: water) was 102 % of control and the T/C (endpoint: median survival time, dose: 25.0 mg/kg/injection, schedule: Q01DX005 (oral), vehicle: water) was 102 % of control. The T/C (endpoint: median survival time, dose: 25.0 mg/kg/injection, schedule: Q01DX009 (ip), vehicle: water) was 87 % of control.

For `CCN(CC)Cc1cc(Nc2ncnc3scc(C)c23)ccc1O`, the T/C [1] was 100 % of control, the T/C [2] was 97 % of control and the T/C [3] was 100 % of control.

With `C(=N/NC1=NCCN1)/c1c2ccccc2c(/C=N\NC2=NCCN2)c2ccccc12` the T/C (endpoint: median survival time, dose: 0.37 mg/kg/injection, schedule: Q01DX009 (ip), vehicle: suspension in saline) was 152 % of control, the T/C (endpoint: median survival time, dose: 1.56 mg/kg/injection, schedule: Q01DX009 (ip), vehicle: saline) was 170 % of control and the T/C (endpoint: median survival time, dose: 3.0 mg/kg/injection, schedule: Q01DX009 (ip), vehicle: suspension in saline) was 172 % of control. For the same compound, the T/C (endpoint: median survival time, dose: 3.12 mg/kg/injection, schedule: Q01DX009 (ip), vehicle: saline) was 370 % of control, the T/C (endpoint: median survival time, dose: 6.25 mg/kg/injection, schedule: Q01DX009 (ip), vehicle: saline) was 172 % of control and the T/C (endpoint: median survival time, dose: 12.5 mg/kg/injection, schedule: Q01DX009 (ip), vehicle: saline) was 164 % of control and 180 % of control. The T/C (endpoint: median survival time, dose: 25.0 mg/kg/injection, schedule: Q01DX009 (ip), vehicle: saline) was 176 % of control and the T/C (endpoint: median survival time, dose: 48.0 mg/kg/injection, schedule: Q01DX009 (ip), vehicle: suspension in saline) was 113 % of control.

In the case of `C=C(Br)CSC#N`, the T/C [1] is reported as 96 % of control, the T/C [2] is reported as 112 % of control and the T/C [3] is reported as 96 % of control.
